This note sets out measurements from US20190167589A1, “BIOMIMETIC PROTEOLIPID VESICLE COMPOSITIONS AND USES THEREOF” (The Methodist Hospital, priority 2016, published 2019).

Each structure is given as a SMILES string.

Test [1] concerns LPS-induced ear inflammation. In words: Anti-inflammatory efficacy in LPS-induced local ear inflammation. The class given is in vivo, mice. As to conditions: treatment 30 min after LPS; DXM 5 mg/kg where loaded. The procedure:
Explanted mouse ears were washed twice with PBS and embedded in a cryomold in O.C.T. (Tissue-Tek® O.C.T. Compound, Sakura® Finetek), and instantly frozen at −80° C. Ten μm-thick slides were obtained cutting ears block with a cryostat at −20° C. The slides were stored at −20° C. For hematoxylin and eosin (H/E) staining, slides were thawed, hydrated, washed and stained with hematoxylin and eosin (Sigma-Aldrich).
Once cryo-sections were obtained as described in the previous paragraph, immunofluorescence (IF) staining was performed as previously reported (Gelain et al., 2010). Briefly, slides were thawed and blocked with BSA 5% (Sigma-Aldrich) PBS 1× solution. After washing, they were incubated overnight at 4° C. with anti-neutrophil antibody (Alexa Fluor® 647 anti-mouse Ly-6G/Ly-6C (Gr-1) Biolegend. Excess anti-neutrophil antibody was washed out with PBS 1X. Cells nuclei were stained with DAPI. Slides were sealed with ProLong Gold antifade reagent (Life Technologies™). Images were captured with an Eclipse® Ti Inverted Fluorescent Microscope equipped with Hamamatsu Digital Camera C11440 ORCA-Flash 2.8.
Particles were administrated 30 min after LPS injection.
Explanted Mice ears were washed twice with PBS and embedded in a cryomold in O.C.T. (Tissue-Tek® O.C.T. Compound, Sakura® Finetek), and instantly frozen at −80° C. […]

For test [2], the target named is T1, Tyrosyl DNA Phosphodiesterase 2 (TDP2) (Homo sapiens, UniProt O95551).
T1 sequence (O95551 1-362): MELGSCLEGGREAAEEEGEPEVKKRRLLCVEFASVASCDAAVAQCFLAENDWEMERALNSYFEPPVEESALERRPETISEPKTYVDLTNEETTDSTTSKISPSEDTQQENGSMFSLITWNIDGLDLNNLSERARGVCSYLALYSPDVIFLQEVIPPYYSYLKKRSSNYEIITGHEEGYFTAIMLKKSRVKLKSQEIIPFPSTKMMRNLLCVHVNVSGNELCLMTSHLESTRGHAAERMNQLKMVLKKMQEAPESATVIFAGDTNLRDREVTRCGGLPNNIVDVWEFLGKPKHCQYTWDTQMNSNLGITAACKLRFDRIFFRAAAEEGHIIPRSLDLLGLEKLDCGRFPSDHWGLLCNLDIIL
In words: High-throughput screening for TDP2 inhibitory activity. It is filed as biochemical.

A further test concerns human lung cancer cells. The test is described as follows: Synergy with Etoposide in killing cancer cells in vitro. It is filed as cell-based.

In the case of `C[C@@H]1C[C@H]2[C@@H]3CCC4=CC(=O)C=C[C@]4(C)[C@@]3(F)[C@@H](O)C[C@]2(C)[C@@]1(O)C(=O)CO` [free DXM, Dexamethasone], the “tissue architecture (H&E staining)” value in test [1] is recorded as “alteration of tissue architecture”.
Regarding `COc1cc2c(cc1OC)-c1c(OC)c(OC)cc3c1[C@H](C2)N(C)CC3` [Glaucine], the TDP2 inhibitory activity entry in test [2] was “TDP2 inhibitor”. Further, the “synergy with Etoposide in cancer cell killing” value in the test with human lung cancer cells is on record as “able to enhance Etoposide mediated cancer cell killing”.
